In the supplement of paper PMC10733146:

How the values were obtained:
Assay in all cases: viability relative to DMSO control (fraction); higher = less drug effect (more viable cells)
Conditions in all cases: 48 h
[1] = tested on: primary AML patient cells (S089)
Procedure, shortened: (§1)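 Using 384-well plates with compounds already plated at five concentrations, one well per concentration, 4 × 10^4 primary mononuclear tumour cells were added per well. Cells were Ficoll-isolated from blood or bone marrow or came from processed lymph node, fresh or cryopreserved. They were kept for 48 h at 37 °C and 5% CO2 in RPMI-1640 supplemented with penicillin/streptomycin, L-glutamine and human serum, and viability was read as CellTiter-Glo luminescence relative to the median of 16 inner DMSO wells.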

[2] = tested on: primary MCL patient cells (S053)
Procedure, shortened: as §1

[3] = tested on: primary AML patient cells (S025)
Procedure, shortened: as §1

[4] = tested on: primary AML patient cells (S012)
Procedure, shortened: as §1

[5] = tested on: primary AML patient cells (S072)
Procedure, shortened: as §1

[6] = tested on: primary AML patient cells (S019)
Procedure, shortened: as §1

[7] = tested on: primary AML patient cells (S002)
Procedure, shortened: as §1

[8] = tested on: primary CLL patient cells (S031)
Procedure, shortened: as §1

[9] = tested on: primary CLL patient cells (S043)
Procedure, shortened: as §1

[10] = tested on: primary AML patient cells (S037)
Procedure, shortened: as §1

[11] = tested on: primary AML patient cells (S091)
Procedure, shortened: as §1

[12] = tested on: primary ALL patient cells (S048)
Procedure, shortened: as §1

[13] = tested on: primary AML patient cells (S056)
Procedure, shortened: as §1

[14] = tested on: primary MCL patient cells (S068)
Procedure, shortened: as §1

[15] = tested on: primary AML patient cells (S085)
Procedure, shortened: as §1

[16] = tested on: primary AML patient cells (S017)
Procedure, shortened: as §1

[17] = tested on: primary FL patient cells (S022)
Procedure, shortened: as §1

[18] = tested on: primary AML patient cells (S071)
Procedure, shortened: as §1

[19] = tested on: primary BL patient cells (S005)
Procedure, shortened: as §1

[20] = tested on: primary AML patient cells (S079)
Procedure, shortened: as §1

For `O=C(c1cc(Cc2n[nH]c(=O)c3ccccc23)ccc1F)N1CCN(C(=O)C2CC2)CC1` [Olaparib], the viability ([1]; 0.024 µM) was 0.959, the viability ([1]; 0.12 µM) was 0.82 and the viability ([1]; 0.6 µM) was 0.883. For the same molecule, the viability ([1]; 3 µM) was 0.63, the viability ([1]; 15 µM) was 0.814 and the viability ([2]; 0.024 µM) was 0.801. The viability ([2]; 0.12 µM) was 0.863, the viability ([2]; 0.6 µM) was 0.834 and the viability ([2]; 3 µM) was 0.685. The viability ([2]; 15 µM) was 0.643, the viability ([3]; 0.024 µM) was 0.995 and the viability ([3]; 0.12 µM) was 0.973. It also gave a viability ([3]; 0.6 µM) of 0.95, a viability ([3]; 3 µM) of 1.01 and a viability ([3]; 15 µM) of 0.861. For the same molecule, the viability ([4]; 0.024 µM) was 0.928, the viability ([4]; 0.12 µM) was 0.976 and the viability ([4]; 0.6 µM) was 0.955. The viability ([4]; 3 µM) was 0.925, the viability ([4]; 15 µM) was 0.876 and the viability ([5]; 0.024 µM) was 0.829. For the same molecule, the viability ([5]; 0.12 µM) was 0.891, the viability ([5]; 0.6 µM) was 0.914 and the viability ([5]; 3 µM) was 0.885. For the same molecule, the viability ([5]; 15 µM) was 0.852, the viability ([6]; 0.024 µM) was 0.851 and the viability ([6]; 0.12 µM) was 0.939. It also gave a viability ([6]; 0.6 µM) of 0.91, a viability ([6]; 3 µM) of 0.889 and a viability ([6]; 15 µM) of 0.893. For the same molecule, the viability ([7]; 0.024 µM) was 0.804, the viability ([7]; 0.12 µM) was 1.05 and the viability ([7]; 0.6 µM) was 0.935. For the same molecule, the viability ([7]; 3 µM) was 0.804, the viability ([7]; 15 µM) was 0.748 and the viability ([8]; 0.024 µM) was 0.814. For the same molecule, the viability ([8]; 0.12 µM) was 0.89, the viability ([8]; 0.6 µM) was 0.913 and the viability ([8]; 3 µM) was 0.829. For the same molecule, the viability ([8]; 15 µM) was 0.854, the viability ([9]; 0.024 µM) was 0.797 and the viability ([9]; 0.12 µM) was 0.814. For the same molecule, the viability ([9]; 0.6 µM) was 0.835, the viability ([9]; 3 µM) was 0.867 and the viability ([9]; 15 µM) was 0.825. The viability ([10]; 0.024 µM) was 0.853, the viability ([10]; 0.12 µM) was 0.895 and the viability ([10]; 0.6 µM) was 0.915. It also gave a viability ([10]; 3 µM) of 0.859, a viability ([10]; 15 µM) of 0.776 and a viability ([11]; 0.024 µM) of 0.857. For the same molecule, the viability ([11]; 0.12 µM) was 0.796, the viability ([11]; 0.6 µM) was 0.883 and the viability ([11]; 3 µM) was 0.862. For the same molecule, the viability ([11]; 15 µM) was 0.691, the viability ([12]; 0.024 µM) was 0.685 and the viability ([12]; 0.12 µM) was 0.799. For the same molecule, the viability ([12]; 0.6 µM) was 0.786, the viability ([12]; 3 µM) was 0.771 and the viability ([12]; 15 µM) was 0.7. For the same molecule, the viability ([13]; 0.024 µM) was 1.05, the viability ([13]; 0.12 µM) was 0.922 and the viability ([13]; 0.6 µM) was 1.05. For the same molecule, the viability ([13]; 3 µM) was 1.15, the viability ([13]; 15 µM) was 1.17 and the viability ([14]; 0.024 µM) was 0.896. The viability ([14]; 0.12 µM) was 0.838, the viability ([14]; 0.6 µM) was 0.714 and the viability ([14]; 3 µM) was 0.78. It also gave a viability ([14]; 15 µM) of 0.585, a viability ([15]; 0.024 µM) of 0.861 and a viability ([15]; 0.12 µM) of 0.866. For the same molecule, the viability ([15]; 0.6 µM) was 0.988, the viability ([15]; 3 µM) was 0.793 and the viability ([15]; 15 µM) was 0.992. The viability ([16]; 0.024 µM) was 0.796, the viability ([16]; 0.12 µM) was 0.917 and the viability ([16]; 0.6 µM) was 0.931. It also gave a viability ([16]; 3 µM) of 0.94, a viability ([16]; 15 µM) of 0.914 and a viability ([17]; 0.024 µM) of 0.828. The viability ([17]; 0.12 µM) was 1.07, the viability ([17]; 0.6 µM) was 0.937 and the viability ([17]; 3 µM) was 0.866. It also gave a viability ([17]; 15 µM) of 0.875, a viability ([18]; 0.024 µM) of 0.974 and a viability ([18]; 0.12 µM) of 1.01. The viability ([18]; 0.6 µM) was 1.02, the viability ([18]; 3 µM) was 0.917 and the viability ([18]; 15 µM) was 0.806. The viability ([19]; 0.024 µM) was 0.938, the viability ([19]; 0.12 µM) was 0.985 and the viability ([19]; 0.6 µM) was 0.977. It also gave a viability ([19]; 3 µM) of 0.904, a viability ([19]; 15 µM) of 0.878 and a viability ([20]; 0.024 µM) of 0.828. It also gave a viability ([20]; 0.12 µM) of 0.844, a viability ([20]; 0.6 µM) of 0.898 and a viability ([20]; 3 µM) of 0.893. The viability ([20]; 15 µM) was 0.815.

Work on `Cc1sc2c(c1C)C(c1ccc(Cl)cc1)=N[C@@H](CC(=O)Nc1ccc(O)cc1)c1nnc(C)n1-2` [OTX015] yielded a viability ([1]; 0.016 µM) of 0.894, a viability ([1]; 0.08 µM) of 0.848 and a viability ([1]; 0.4 µM) of 0.546. For the same molecule, the viability ([1]; 2 µM) was 0.398, the viability ([1]; 10 µM) was 0.311 and the viability ([2]; 0.016 µM) was 0.972. It also gave a viability ([2]; 0.08 µM) of 0.949, a viability ([2]; 0.4 µM) of 0.689 and a viability ([2]; 2 µM) of 0.546. For the same molecule, the viability ([2]; 10 µM) was 0.477, the viability ([3]; 0.016 µM) was 0.87 and the viability ([3]; 0.08 µM) was 0.971. It also gave a viability ([3]; 0.4 µM) of 0.767, a viability ([3]; 2 µM) of 0.629 and a viability ([3]; 10 µM) of 0.549. The viability ([4]; 0.016 µM) was 0.989, the viability ([4]; 0.08 µM) was 0.84 and the viability ([4]; 0.4 µM) was 0.565. For the same molecule, the viability ([4]; 2 µM) was 0.379, the viability ([4]; 10 µM) was 0.267 and the viability ([5]; 0.016 µM) was 0.806. The viability ([5]; 0.08 µM) was 0.826, the viability ([5]; 0.4 µM) was 0.604 and the viability ([5]; 2 µM) was 0.375. It also gave a viability ([5]; 10 µM) of 0.364, a viability ([6]; 0.016 µM) of 1.14 and a viability ([6]; 0.08 µM) of 1.12. It also gave a viability ([6]; 0.4 µM) of 1.08, a viability ([6]; 2 µM) of 0.985 and a viability ([6]; 10 µM) of 0.965. It also gave a viability ([7]; 0.016 µM) of 0.853, a viability ([7]; 0.08 µM) of 0.565 and a viability ([7]; 0.4 µM) of 0.396. For the same molecule, the viability ([7]; 2 µM) was 0.315, the viability ([7]; 10 µM) was 0.317 and the viability ([8]; 0.016 µM) was 0.983. For the same molecule, the viability ([8]; 0.08 µM) was 0.927, the viability ([8]; 0.4 µM) was 0.77 and the viability ([8]; 2 µM) was 0.52. For the same molecule, the viability ([8]; 10 µM) was 0.405, the viability ([9]; 0.016 µM) was 0.959 and the viability ([9]; 0.08 µM) was 0.963. The viability ([9]; 0.4 µM) was 0.9, the viability ([9]; 2 µM) was 0.76 and the viability ([9]; 10 µM) was 0.762. The viability ([10]; 0.016 µM) was 1.11, the viability ([10]; 0.08 µM) was 0.851 and the viability ([10]; 0.4 µM) was 1. The viability ([10]; 2 µM) was 0.716, the viability ([10]; 10 µM) was 0.97 and the viability ([11]; 0.016 µM) was 0.741. For the same molecule, the viability ([11]; 0.08 µM) was 0.478, the viability ([11]; 0.4 µM) was 0.276 and the viability ([11]; 2 µM) was 0.25. For the same molecule, the viability ([11]; 10 µM) was 0.254, the viability ([12]; 0.016 µM) was 1.1 and the viability ([12]; 0.08 µM) was 1.04. For the same molecule, the viability ([12]; 0.4 µM) was 0.552, the viability ([12]; 2 µM) was 0.305 and the viability ([12]; 10 µM) was 0.241. The viability ([13]; 0.016 µM) was 0.932, the viability ([13]; 0.08 µM) was 0.885 and the viability ([13]; 0.4 µM) was 0.631. It also gave a viability ([13]; 2 µM) of 0.255, a viability ([13]; 10 µM) of 0.235 and a viability ([14]; 0.016 µM) of 0.856. It also gave a viability ([14]; 0.08 µM) of 0.616, a viability ([14]; 0.4 µM) of 0.266 and a viability ([14]; 2 µM) of 0.2. The viability ([14]; 10 µM) was 0.184, the viability ([15]; 0.016 µM) was 0.861 and the viability ([15]; 0.08 µM) was 0.614. It also gave a viability ([15]; 0.4 µM) of 0.312, a viability ([15]; 2 µM) of 0.191 and a viability ([15]; 10 µM) of 0.178. The viability ([16]; 0.016 µM) was 0.96, the viability ([16]; 0.08 µM) was 0.937 and the viability ([16]; 0.4 µM) was 0.573. The viability ([16]; 2 µM) was 0.391, the viability ([16]; 10 µM) was 0.354 and the viability ([17]; 0.016 µM) was 0.981. It also gave a viability ([17]; 0.08 µM) of 0.971, a viability ([17]; 0.4 µM) of 0.955 and a viability ([17]; 2 µM) of 0.897. It also gave a viability ([17]; 10 µM) of 0.874, a viability ([18]; 0.016 µM) of 0.988 and a viability ([18]; 0.08 µM) of 1.08. It also gave a viability ([18]; 0.4 µM) of 0.994, a viability ([18]; 2 µM) of 0.829 and a viability ([18]; 10 µM) of 0.722. It also gave a viability ([19]; 0.016 µM) of 0.977, a viability ([19]; 0.08 µM) of 0.911 and a viability ([19]; 0.4 µM) of 0.818. The viability ([19]; 2 µM) was 0.758, the viability ([19]; 10 µM) was 0.802 and the viability ([20]; 0.016 µM) was 0.812. It also gave a viability ([20]; 0.08 µM) of 0.757, a viability ([20]; 0.4 µM) of 0.568 and a viability ([20]; 2 µM) of 0.44. The viability ([20]; 10 µM) was 0.403.
